{"source": "patent US12459973B2", "about": "“Peptide compounds for reducing side effects of CB1 receptor agonists” (priority 2019, dated 2025)", "key": {"[1]": {"system": "trypsin", "experiment": "in vitro", "details": "pH 8.2", "protocol": "(§7) A 1000 μg/1000 μL trypsin solution (Thermo Fisher Scientific) was prepared by suspending the lyophilized enzyme in 50 mM ammonium bicarbonate buffer, pH 8.2. Peptide dissolved in the same buffer (1 μg/L) was incubated with trypsin (peptide:trypsin ratio=100:1) for 24 h at 37° C. Samples were collected at various time points and digestion was stopped by addition of 20% (v/v) of 0.5% formic acid in H2O. Samples were stored at −20° C. until analyzed by reverse-phase HPLC-MS. Experiments are performed in duplicate and data were fit with GraphPad Prism."}, "[2]": {"system": "bEnd.3 cells", "experiment": "in vitro", "details": "bEnd.3, 24 h, 0.01-50 μM", "method": "(§1) bEnd.3 brain endothelioma cells (ATCC® CRL-2299TM) were grown as a monolayer on 75 cm^2 T-flasks in DMEM supplemented with 10% fetal bovine serum (FBS), and 1% penicillin/streptomycin antibiotic solution (Gibco™, USA). Cells were cultured in a humidified atmosphere of 95% air and 5% CO2 at 37° C. (MCO-18AIC (UV), Sanyo, Japan), with the medium changed every other day. The cells were harvested from cell culture T-flasks when confluent with trypsin-EDTA (Gibco™, USA) and used in different assays (cell proliferation, in vitro BBB translocation and in vitro Bimolecular Fluorescence complementation).\n(§2) The in vitro cytotoxicity of the compound to be evaluated is studied using the same cell line of the in vitro BBB model, namely bEnd.3 cells, to evaluate possible toxicity. bEnd.3 cell line was exposed to increasing concentrations of the compound for 24 h.\n(§3) The assay is based on the ability of viable cells to reduce resazurin into resorufin, a highly fluorescent metabolite. Non-viable cells are not able to generate resorufin.\n(§4) Therefore, using this approach is possible to distinguish between metabolic and non-metabolic cells, and indirectly to determine the cytotoxicity of different compounds. bEnd.3 cells were seeded onto a 96-well plate (Corning, USA) at 10,000 cells/100 μL/well and incubated for 24 h. After medium removal, 100 μL of previous diluted peptides (range between 0.01-50 μM) in DMEM medium were added to the wells. After 24 h incubation, 20 μL of CellTiter-Blue® Reagent was added to each well and incubated for 3 h in a humidified atmosphere of 5% CO2 at 37° C. The fluorescence intensity was measured with an λexc=560 nm and an λem=590 nm using an Infinite F200 TECAN plate reader. Medium and 1% Triton X-100-containing medium were used as positive controls (100% cell viability) and negative controls (0% cell viability), respectively. Cell viability (%) was determined using the following equation:\n(§5) [formula] where Fp is the fluorescence intensity of peptide-treated cells, FNC is the fluorescence intensity for negative controls, and FPC is the fluorescence intensity for positive controls.\n(§6) Experiments were performed on different days using independently grown cell cultures."}, "[3]": {"experiment": "in vitro", "details": "mouse, bEnd.3 brain endothelioma cells", "method": "as §1, §2, §3, §4, §5, §6"}, "[4]": {"target": "T1, CB1R and 5-HT2AR heteromers (Homo sapiens, UniProt P28223)", "T1 construct": "expressed in transfected cells; host or cells: HEK-293T", "T1 sequence (P28223 whole entry, one chain of several)": "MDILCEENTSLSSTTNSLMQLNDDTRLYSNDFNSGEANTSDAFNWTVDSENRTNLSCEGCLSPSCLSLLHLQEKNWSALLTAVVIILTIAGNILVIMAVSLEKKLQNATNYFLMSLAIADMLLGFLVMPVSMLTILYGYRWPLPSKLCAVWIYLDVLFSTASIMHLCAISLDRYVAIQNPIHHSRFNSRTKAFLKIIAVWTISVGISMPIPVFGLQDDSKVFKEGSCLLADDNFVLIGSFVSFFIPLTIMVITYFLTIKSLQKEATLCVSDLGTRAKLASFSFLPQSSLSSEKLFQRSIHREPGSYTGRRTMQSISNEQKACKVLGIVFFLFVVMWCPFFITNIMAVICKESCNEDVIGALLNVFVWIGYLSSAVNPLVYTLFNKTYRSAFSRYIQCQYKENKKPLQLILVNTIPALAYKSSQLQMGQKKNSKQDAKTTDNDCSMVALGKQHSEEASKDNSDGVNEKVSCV", "experiment": "Disruption of CB1R and 5-HT2AR heteromers by bimolecular fluorescence complementation", "format": "cell-based", "details": "HEK-293T, CB1R-nYFP + 5-HT2AR-cYFP, peptide 4 μM, 4 h, 37° C.", "text": "The method described in “Viñals* X, Moreno* E, Lanfumey L, Cordomi A, Pastor A, de La Torre R, Gasperini P, Navarro G, Howell L A, Pardo L, Lluís C, Canela El, McCormick* P J, Maldonado* R, Robledo* P. Cognitive Impairment Induced by Delta9-tetrahydrocannabinol Occurs through Heteromers between Cannabinoid CB1 and Serotonin 5-HT2A Receptors. PLoS Biology, 13(7): e1002194 (2015)” was used with the slight modifications herein described herein to determine the in vitro capacity of the peptides to disrupt CB1R and 5-HT2AR heteromers.\nTo obtain the YFP Venus hemi-truncated proteins fused to the receptors of interest (5-HT2AR-cYFP, CB1R-nYFP), 5-HT2AR was subcloned to be in-frame with restriction sites of pcDNA3.1-cVenus, which contained the sequences encoding amino acid residues 156-238 of YFP Venus protein. Moreover, CB1R was subcloned to be in-frame with restriction sites of pcDNA3.1-nVenus, which contained the sequences encoding amino acid residues 1-155 of YFP Venus protein.\nExpression of constructs was tested by confocal microscopy and the receptor fusion protein functionality by ERK1/2 phosphorylation.\nHuman embryonic kidney (HEK-293T) cells obtained from ATCC were grown in Dulbecco's modified Eagle's medium (DMEM) (Gibco) supplemented with 2 mM L-glutamine, 100 μg/ml sodium pyruvate, 100 U/ml penicillin/streptomycin, MEM Non-Essential Amino Acids Solution (1/100), and 5% (v/v) heat inactivated fetal bovine serum (FBS) (all supplements were from Invitrogen, Paisley, Scotland, UK). Cells were maintained at 37° C. in an atmosphere of 5% CO2.\nCells growing in 6-well dishes were transiently transfected with the cDNA encoding for CB1R fused to the YFP Venus N-terminal fragment (n-YFP) and 5-HT2AR fused to the YFP Venus C-terminal fragment (c-YFP) by the PEI (PolyEthylenlmine, Sigma) method. Cells were incubated 4 h with the corresponding cDNA together with PEI and 150 mM NaCl in a serum-starved medium. After 4 h, the medium was changed to a fresh complete culture medium.\nAfter 48 h, cells were treated or not with the indicated TAT-peptides (4 μM) for 4 h at 37° C. To quantify the complemented YFP Venus expression, cells were washed twice in quick succession in HBSS with 10 mM glucose, detached, and resuspended in the same buffer. To control the cell number, sample protein concentration was determined using a Bradford assay kit (Bio-Rad, Munich, Germany) using bovine serum albumin dilutions as standards. 20 μg protein were distributed into 96-well microplates (black plates with a transparent bottom, Porvair, King's Lynn, UK), and fluorescence emission at 530 nm after the excitation at 500 nm with a Mithras LB940 (Berthold Technologies, Bad Wildbad, Germany) was recorded. Protein fluorescence was determined as fluorescence of the sample minus the fluorescence of untransfected cells (basal)."}, "[5]": {"system": "trypsin", "details": "peptide remaining by HPLC, incubation with trypsin 100:1, 37° C.", "protocol": "as §7"}, "[6]": {"experiment": "Novel object recognition test (memory)", "format": "in vivo", "details": "Vehicle (IV) + THC 3 mg/kg IP, mice", "method": "The method described in “Puighermanal E, Marsicano G, Busquets-Garcia A, Lutz B, Maldonado R, Ozaita A. Cannabinoid modulation of hippocampal long-term memory is mediated by mTOR signaling. Nature Neuroscience, 12(9): 1152-8 (2009)” was used with the slight modifications herein described to assess the effect of the peptides on memory.\nOn day 1 (Habituation), mice were habituated for 9 min to the V-maze in which the task was performed. On the second day (Training), mice were put back in the V-maze for 9 min, two identical objects were presented and the time that the mice spent exploring each object was recorded. The mice were again placed in the maze 24 h later for 9 min (Test), one of the familiar objects was replaced with a novel object and the total time spent exploring each of the two objects (novel and familiar) was computed. Object exploration was defined as the orientation of the nose to the object at less than 2 cm. A discrimination index was calculated as the difference between the times spent exploring the novel or familiar object divided by the total time exploring the two objects. A higher discrimination index is considered to reflect greater memory retention for the familiar object as normal mice spend more time exploring a novel object than a familiar one. […]"}, "[7]": {"experiment": "Hot plate test (analgesic effect)", "format": "in vivo", "details": "Vehicle (IV) + THC 10 mg/kg IP, hot plate 52° C., mice", "method": "The method described in “Monory K, Blaudzun H, Massa F, Kaiser N, Lemberger T, Schütz G, Wotjak C T, Lutz B*, Marsicano G*. Genetic Dissection of Behavioural and Autonomic Effects of D9-tetrahydrocannabinol in Mice. PLoS Biology, 5(10): e269, 2007” was used with the slight modifications herein described to assess the analgesic effect of the peptides.\nTHC-induced analgesia was measured using a hot plate analgesia meter (Hot/Cold Plate Test, Bioseb, USA) 60 min after intraperitoneal injection (IP) of THC dissolved in an IP vehicle (5% v/v of ethanol, 5% v/v of Cremophor-EL and 90% v/v saline) or injection of the vehicle (saline plus 2% DMSO) alone and by intravenous injection 90 min after the first injection of the peptide to be tested in an IV vehicle or of the vehicle alone. […] A cut-off time of 240 s was set to prevent tissue damage."}}, "note": "Non-standard residues stand in square brackets, D forms with d. Residues, ends and D or L forms follow the SMILES beside them. No end group written: not given here."}
{"compound": "CC[C@@H](C)[C@@H](NC(=O)CNC(=O)[C@@H](C)NC(=O)[C@H](NC(=O)[C@@H](Cc1ccc(O)cc1)NC(=O)[C@@H](C)NC(=O)[C@@H](Cc1ccc(O)cc1)NC(=O)[C@@H](CCSC)NC(=O)[C@@H](Cc1ccc(O)cc1)NC(=O)[C@H](NC(=O)[C@@H](CC(C)C)NC(=O)[C@H](N)Cc1c[nH]c2ccccc12)[C@H](C)CC)C(C)C)C(=O)N[C@H](CC(C)C)C(=O)N[C@H](CCCCN)C(=O)N[C@H](CCCNC(=N)N)C(=O)N[C@H](Cc1c[nH]c2ccccc12)C(N)=O", "note": "[Example 1, D-Trp-D-Leu-D-Ile-D-Tyr-D-Met-D-Tyr-D-Ala-D-Tyr-D-Val-D-Ala-Gly-D-Ile-D-Leu-D-Lys-D-Arg-D-Trp-NH2] (H-[dW][dL][dI][dY][dM][dY][dA][dY][dV][dA]G[dI][dL][dK][dR][dW]-NH2)", "values": [{"measurement": "remaining at 24 h, 1 μg/L", "setting": "[1]", "result": "83 ± 4.04", "unit": "%"}, {"measurement": "toxicity (in words)", "setting": "[2]", "result": "no significant toxicity"}, {"measurement": "EC50 at 24 h", "setting": "[3]", "result": "> 50", "unit": "µM"}, {"measurement": "viability at 24 h, 0.012 µM", "setting": "[3]", "result": 98.3, "unit": "%"}, {"measurement": "viability at 24 h, 0.024 µM", "setting": "[3]", "result": 98.3, "unit": "%"}, {"measurement": "viability at 24 h, 0.049 µM", "setting": "[3]", "result": 98.7, "unit": "%"}, {"measurement": "viability at 24 h, 0.1 µM", "setting": "[3]", "result": 95.4, "unit": "%"}, {"measurement": "viability at 24 h, 0.2 µM", "setting": "[3]", "result": 100, "unit": "%"}, {"measurement": "viability at 24 h, 0.39 µM", "setting": "[3]", "result": 102, "unit": "%"}, {"measurement": "viability at 24 h, 0.78 µM", "setting": "[3]", "result": 98.9, "unit": "%"}, {"measurement": "viability at 24 h, 1.56 µM", "setting": "[3]", "result": 102, "unit": "%"}, {"measurement": "viability at 24 h, 3.12 µM", "setting": "[3]", "result": 100, "unit": "%"}, {"measurement": "viability at 24 h, 6.25 µM", "setting": "[3]", "result": 96.6, "unit": "%"}, {"measurement": "viability at 24 h, 12.5 µM", "setting": "[3]", "result": 104, "unit": "%"}, {"measurement": "viability at 24 h, 25 µM", "setting": "[3]", "result": 96.6, "unit": "%"}, {"measurement": "viability at 24 h, 50 µM", "setting": "[3]", "result": 75.7, "unit": "%"}, {"measurement": "% vs. control (bimolecular fluorescence complementation)", "setting": "[4]", "result": 49.8, "unit": "%"}, {"measurement": "% at t = 24 h", "setting": "[5]; pH 8.2, 24 h", "result": "over 80%"}, {"measurement": "% at t = 0", "setting": "[5]; pH 8.2, t = 0", "result": "100.00 ± 2.05", "unit": "%"}]}
{"compound": "CCCCCc1cc(O)c2c(c1)OC(C)(C)[C@@H]1CCC(C)=C[C@@H]21", "note": "[THC, Δ9-tetrahydrocannabinol]", "values": [{"measurement": "Discrimination index % increase vs. control", "setting": "[6]", "result": "−52", "unit": "%"}, {"measurement": "Jumping latency % increase vs control", "setting": "[7]", "result": 71.4, "unit": "%"}, {"measurement": "Licking latency % increase vs control", "setting": "[7]", "result": 104.2, "unit": "%"}]}
{"compound": "Glu-Thr-Tyr-Leu-Met-Phe-Trp-Ile-Gly-Val-Thr-Ser-Val-Leu-Leu-Leu-Phe-Ile-Val-Tyr-Ala-Tyr-Met-Tyr-Ile-Leu-Trp-Gly-Arg-Lys-Lys-Arg-Arg-Gln-Arg-Arg-Arg-NH2 (ETYLMFWIGVTSVLLLFIVYAYMYILWGRKKRRQRRR-NH2) [Reference Example 1]", "values": [{"measurement": "% vs. control (bimolecular fluorescence complementation)", "setting": "[4]", "result": 52.2, "unit": "%"}, {"measurement": "Fluorescense units (bimolecular fluorescence complementation)", "setting": "[4]", "result": 11154, "unit": "fluorescence units"}]}
{"compound": "VYAYMYILW[dA]G[dI][dL][dK][dR][dW]-NH2 [Reference Example 2]", "values": [{"measurement": "% vs. control (bimolecular fluorescence complementation)", "setting": "[4]", "result": 63.5, "unit": "%"}, {"measurement": "Fluorescense units (bimolecular fluorescence complementation)", "setting": "[4]", "result": 13568, "unit": "fluorescence units"}]}
{"compound": "[dW][dL][dI][dY][dM][dA]G[dI][dL][dK][dR][dW]-NH2 [Reference Example 3]", "values": [{"measurement": "% vs. control (bimolecular fluorescence complementation)", "setting": "[4]", "result": 78.5, "unit": "%"}, {"measurement": "Fluorescense units (bimolecular fluorescence complementation)", "setting": "[4]", "result": 16754, "unit": "fluorescence units"}]}
